According to patent publication US10722442B2, “Skin brightening composition comprising novel ginsenoside” (AMOREPACIFIC CORPORATION, priority 2018, dated 2020):

Legend:
[1] = tested on: Mel-Ab cell line; assay: Melanin production inhibition (Dooley's method); type: cell-based, C57BL/6; settings: Mel-Ab cells, after 5 days, absorbance at 400 nm
[2] = tested on: SH-SY5Y cells; assay: Cytotoxicity, Cell Counting Kit (CCK)-8; type: cell-based; settings: SH-SY5Y cells, 0.1, 1, 5, 10, 20, and 50 μM; up to 50 μM
Method: The cell growth in the presence of novel ginsenoside GS #10, which is an example of the present disclosure, was evaluated using Cell Counting Kit (CCK)-8, in order to exclude the possibility that ginsenosides may affect skin brightening efficacy through cytotoxic activity.
Specifically, the viability of SH-SY5Y cells was assessed using CCK-8 assay according to manufacturer's instructions (Dojindo, Md., USA). CCK-8, a cell viability detection reagent, was added to the cultured SH-SY5Y cells and incubated for 2 hours in a wet atmosphere. Then, absorbance was measured at 450 nm, and the cell viability was marked as a percentage (%) of the absolute optical density of each sample relative to the untreated sample. At this time, the concentration of the novel ginsenoside GS #10, which is an example of the present disclosure, contained in the medium in which the cells were cultured was 0.1, 1, 5, 10, 20, and 50 μM, respectively.

[3] = tested on: healthy adult subjects; assay: Human repeated insult patch tests (HRIPT), skin accumulated irritation; type: in vivo; set-up: key to reactivity (skin response, ICDRG criteria): −: Negative (no response); ±: Suspicious or slight erythema, or the like; +: Weak reactions (without vesicles), erythema, papules; ++: Severe reactions (with vesicles), erythema, papules, vesicles; +++: Strong reaction, bulla reaction; settings: for Average reactivity: safe when less than 3
Method: Human repeated insult patch tests (HRIPT) were performed to confirm whether the novel ginsenoside GS #10, which is an example of the present disclosure, has a skin accumulated irritation and to calculate a concentration range that can be used on the skin.
Specifically, 15 healthy adult subjects were randomly selected, and the test composition containing 0.5 wt %, 1 wt %, and 3 wt % of the compound (the skin composition comprising an emulsifier, a stabilizer, purified water, etc. in addition to the compound) was added dropwise by 20 μl per chamber (IQ chamber, Epitest Ltd, Finland). After 24 hours from patching the upper right part of the back of a subject, it was replaced with the new patch. In this way, the skin reactions were examined before and after each patch while performing nine patches three times a week for a total of three weeks. The skin reactions were confirmed up to 48 hours after removing the final patch, and the average reactivity was obtained.
The skin response was determined according to the criteria of the International Contact Dermatitis Research Group (ICDRG). […] This means that the novel ginsenoside GS #10, which is an example of the present disclosure, has no skin accumulated irritation and can be used safely on the skin.

[4] = target: Mushroom-derived tyrosinase; assay: Inhibitory effect of tyrosinase activity; type: biochemical; settings: L-tyrosine substrate, 20 minutes at 37° C., absorbance at 490 nm
Method: In order to compare the skin brightening effects of ginsenosides isolated from the ginseng seed extract, the inhibitory effect of the tyrosinase activity was evaluated as follows. Mushroom-derived tyrosinase and tyrosine were obtained from Sigma Chemical. […] Tyrosinase activity was assessed by measuring the absorbance at 490 nm using a microplate reader (Bio-Rad 3550, Richmond, Calif., U.S.A.) after an enzyme reaction for 20 minutes at 37° C.

`CC1(C)C(=O)CC[C@@]2(C)C1[C@@H](O[C@H]1OC(CO)[C@H](O)C(O)C1O[C@H]1OC(CO)[C@H](O)C(O)C1O)C[C@]1(C)C2C[C@@H](O)C2C([C@]3(C)CC[C@H](C(C)(C)O)O3)CC[C@]21C` (stereo partly drawn) [GS#10, (20S,24R)-6-O-β-D-glucopyranosyl(1→2)-β-D-glucopyranoside-dammar-3-one-20,24-epoxy-6a,12b,25-triol] was tested, and the “IC50 (ppm), concentration required to reduce melanin production in melanocytes by half” value [1] was 22 ppm, the “cytotoxicity (cell viability)” value [2] was “did not exhibit cytotoxicity” and the “Number of subjects with ±, +, or ++ reactivity” value (shortened to “Number of subjects with ±, +”) ([3]; 0.5 wt %, Eight times, 1st line (±)) was 0 person. The “Number of subjects with ±, +” value ([3]; 0.5 wt %, Eight times, 2nd line (+)) was 0 person, the “Number of subjects with ±, +” value ([3]; 0.5 wt %, Eight times, 3rd line (++)) was 0 person and the “Number of subjects with ±, +” value ([3]; 0.5 wt %, Five times, 1st line (±)) was 0 person. The “Number of subjects with ±, +” value ([3]; 0.5 wt %, Five times, 2nd line (+)) was 0 person, the “Number of subjects with ±, +” value ([3]; 0.5 wt %, Five times, 3rd line (++)) was 0 person and the “Number of subjects with ±, +” value ([3]; 0.5 wt %, Four times, 1st line (±)) was 0 person. For the same molecule, the “Number of subjects with ±, +” value ([3]; 0.5 wt %, Four times, 2nd line (+)) was 0 person, the “Number of subjects with ±, +” value ([3]; 0.5 wt %, Four times, 3rd line (++)) was 0 person and the “Number of subjects with ±, +” value ([3]; 0.5 wt %, Nine times, 1st line (±)) was 0 person. For the same molecule, the “Number of subjects with ±, +” value ([3]; 0.5 wt %, Nine times, 2nd line (+)) was 0 person, the “Number of subjects with ±, +” value ([3]; 0.5 wt %, Nine times, 3rd line (++)) was 0 person and the “Number of subjects with ±, +” value ([3]; 0.5 wt %, Once, 1st line (±)) was 0 person. For the same molecule, the “Number of subjects with ±, +” value ([3]; 0.5 wt %, Once, 2nd line (+)) was 0 person, the “Number of subjects with ±, +” value ([3]; 0.5 wt %, Once, 3rd line (++)) was 0 person and the “Number of subjects with ±, +” value ([3]; 0.5 wt %, Seven times, 1st line (±)) was 0 person. For the same molecule, the “Number of subjects with ±, +” value ([3]; 0.5 wt %, Seven times, 2nd line (+)) was 0 person, the “Number of subjects with ±, +” value ([3]; 0.5 wt %, Seven times, 3rd line (++)) was 0 person and the “Number of subjects with ±, +” value ([3]; 0.5 wt %, Six times, 1st line (±)) was 0 person. The “Number of subjects with ±, +” value ([3]; 0.5 wt %, Six times, 2nd line (+)) was 0 person, the “Number of subjects with ±, +” value ([3]; 0.5 wt %, Six times, 3rd line (++)) was 0 person and the “Number of subjects with ±, +” value ([3]; 0.5 wt %, Three times, 1st line (±)) was 0 person. For the same molecule, the “Number of subjects with ±, +” value ([3]; 0.5 wt %, Three times, 2nd line (+)) was 0 person, the “Number of subjects with ±, +” value ([3]; 0.5 wt %, Three times, 3rd line (++)) was 0 person and the Average reactivity ([3]; 0.5 wt %) was 0. For the same molecule, the “Number of subjects with ±, +” value ([3]; 0.5 wt %, twice, 1st line (±)) was 0 person, the “Number of subjects with ±, +” value ([3]; 0.5 wt %, twice, 2nd line (+)) was 0 person and the “Number of subjects with ±, +” value ([3]; 0.5 wt %, twice, 3rd line (++)) was 0 person. For the same molecule, the “Number of subjects with ±, +” value ([3]; 1 wt %, Eight times, 1st line (±)) was 0 person, the “Number of subjects with ±, +” value ([3]; 1 wt %, Eight times, 2nd line (+)) was 0 person and the “Number of subjects with ±, +” value ([3]; 1 wt %, Eight times, 3rd line (++)) was 0 person. The “Number of subjects with ±, +” value ([3]; 1 wt %, Five times, 1st line (±)) was 0 person, the “Number of subjects with ±, +” value ([3]; 1 wt %, Five times, 2nd line (+)) was 0 person and the “Number of subjects with ±, +” value ([3]; 1 wt %, Five times, 3rd line (++)) was 0 person. The “Number of subjects with ±, +” value ([3]; 1 wt %, Four times, 1st line (±)) was 0 person, the “Number of subjects with ±, +” value ([3]; 1 wt %, Four times, 2nd line (+)) was 0 person and the “Number of subjects with ±, +” value ([3]; 1 wt %, Four times, 3rd line (++)) was 0 person. For the same molecule, the “Number of subjects with ±, +” value ([3]; 1 wt %, Nine times, 1st line (±)) was 0 person, the “Number of subjects with ±, +” value ([3]; 1 wt %, Nine times, 2nd line (+)) was 0 person and the “Number of subjects with ±, +” value ([3]; 1 wt %, Nine times, 3rd line (++)) was 0 person. For the same molecule, the “Number of subjects with ±, +” value ([3]; 1 wt %, Once, 1st line (±)) was 0 person, the “Number of subjects with ±, +” value ([3]; 1 wt %, Once, 2nd line (+)) was 0 person and the “Number of subjects with ±, +” value ([3]; 1 wt %, Once, 3rd line (++)) was 0 person. For the same molecule, the “Number of subjects with ±, +” value ([3]; 1 wt %, Seven times, 1st line (±)) was 0 person, the “Number of subjects with ±, +” value ([3]; 1 wt %, Seven times, 2nd line (+)) was 0 person and the “Number of subjects with ±, +” value ([3]; 1 wt %, Seven times, 3rd line (++)) was 0 person. The “Number of subjects with ±, +” value ([3]; 1 wt %, Six times, 1st line (±)) was 0 person, the “Number of subjects with ±, +” value ([3]; 1 wt %, Six times, 2nd line (+)) was 0 person and the “Number of subjects with ±, +” value ([3]; 1 wt %, Six times, 3rd line (++)) was 0 person. The “Number of subjects with ±, +” value ([3]; 1 wt %, Three times, 1st line (±)) was 0 person, the “Number of subjects with ±, +” value ([3]; 1 wt %, Three times, 2nd line (+)) was 0 person and the “Number of subjects with ±, +” value ([3]; 1 wt %, Three times, 3rd line (++)) was 0 person. The Average reactivity ([3]; 1 wt %) was 0, the “Number of subjects with ±, +” value ([3]; 1 wt %, twice, 1st line (±)) was 0 person and the “Number of subjects with ±, +” value ([3]; 1 wt %, twice, 2nd line (+)) was 0 person. For the same molecule, the “Number of subjects with ±, +” value ([3]; 1 wt %, twice, 3rd line (++)) was 0 person, the “Number of subjects with ±, +” value ([3]; 3 wt %, Eight times, 1st line (±)) was 0 person and the “Number of subjects with ±, +” value ([3]; 3 wt %, Eight times, 2nd line (+)) was 0 person. For the same molecule, the “Number of subjects with ±, +” value ([3]; 3 wt %, Eight times, 3rd line (++)) was 0 person, the “Number of subjects with ±, +” value ([3]; 3 wt %, Five times, 1st line (±)) was 0 person and the “Number of subjects with ±, +” value ([3]; 3 wt %, Five times, 2nd line (+)) was 0 person. The “Number of subjects with ±, +” value ([3]; 3 wt %, Five times, 3rd line (++)) was 0 person, the “Number of subjects with ±, +” value ([3]; 3 wt %, Four times, 1st line (±)) was 0 person and the “Number of subjects with ±, +” value ([3]; 3 wt %, Four times, 2nd line (+)) was 0 person. For the same molecule, the “Number of subjects with ±, +” value ([3]; 3 wt %, Four times, 3rd line (++)) was 0 person, the “Number of subjects with ±, +” value ([3]; 3 wt %, Nine times, 1st line (±)) was 0 person and the “Number of subjects with ±, +” value ([3]; 3 wt %, Nine times, 2nd line (+)) was 0 person. For the same molecule, the “Number of subjects with ±, +” value ([3]; 3 wt %, Nine times, 3rd line (++)) was 0 person, the “Number of subjects with ±, +” value ([3]; 3 wt %, Once, 1st line (±)) was 0 person and the “Number of subjects with ±, +” value ([3]; 3 wt %, Once, 2nd line (+)) was 0 person. The “Number of subjects with ±, +” value ([3]; 3 wt %, Once, 3rd line (++)) was 0 person, the “Number of subjects with ±, +” value ([3]; 3 wt %, Seven times, 1st line (±)) was 0 person and the “Number of subjects with ±, +” value ([3]; 3 wt %, Seven times, 2nd line (+)) was 0 person. The “Number of subjects with ±, +” value ([3]; 3 wt %, Seven times, 3rd line (++)) was 0 person, the “Number of subjects with ±, +” value ([3]; 3 wt %, Six times, 1st line (±)) was 0 person and the “Number of subjects with ±, +” value ([3]; 3 wt %, Six times, 2nd line (+)) was 0 person. For the same molecule, the “Number of subjects with ±, +” value ([3]; 3 wt %, Six times, 3rd line (++)) was 0 person, the “Number of subjects with ±, +” value ([3]; 3 wt %, Three times, 1st line (±)) was 0 person and the “Number of subjects with ±, +” value ([3]; 3 wt %, Three times, 2nd line (+)) was 0 person. The “Number of subjects with ±, +” value ([3]; 3 wt %, Three times, 3rd line (++)) was 0 person, the Average reactivity ([3]; 3 wt %) was 0 and the “Number of subjects with ±, +” value ([3]; 3 wt %, twice, 1st line (±)) was 0 person. For the same molecule, the “Number of subjects with ±, +” value ([3]; 3 wt %, twice, 2nd line (+)) was 0 person, the “Number of subjects with ±, +” value ([3]; 3 wt %, twice, 3rd line (++)) was 0 person and the “reactivity (skin response, ICDRG criteria)” value ([3]; all content range (0.5 wt %, 1 wt %, 3 wt %), nine patches in three weeks) was “−”. For the same molecule, the “IC50 (ppm), inhibitory effect of tyrosinase activity” value [4] was 15 ppm.
